Data taken from patent US12012628B2, “Method to elevate the amount of steviol glycosides remained in the recrystallization mother liquor of Stevia extract” (Jiangnan University, priority 2018, dated 2024).
Read-outs that look alike come from different tables or passages of the source.

Key:
[1] = n-butyl alcohol/water partition coefficients of steviol glycosides; assay type: physicochemical
Text: The n-butyl alcohol/water partition coefficients of several major steviol glycosides in the mother liquor glycosides are shown in Table 1. It can be seen in Table 1 that the polarity difference between rebaudioside A and rebaudioside C and rubusoside is far larger than the polarity difference between rebaudioside A and rebaudioside C and stevioside; and thus, after stevioside is converted into rubusoside, rebaudioside A and rebaudioside C can be separated out of a mixture more easily than before.

[2] = tested on: lactase from Kluyveromyces fragilis (ATCC 8554); test: Lactase-catalysed hydrolysis of steviol glycosides, HPLC analysis of the reaction mixture; assay type: biochemical
Protocol: A standard curve is drawn with rebaudioside A (HPLC 99%) as a standard sample, concentrations of rebaudioside A, stevioside and rubusoside are figured out through the standard curve of rebaudioside A by means of an analysis and detection method of steviol glycosides in JECFA2016.
A conversion rate calculation formula of stevioside: α=[(C0−Ct)/C0]×100% (1)
250 g/L glycoside liquid is prepared with deionized water from Stevia sugar (containing 22% of rebaudioside A, 68% of stevioside and 3% of rebaudioside C in percentages by mass). The lactase freeze-dried powder obtained in Example 1 is added to reach an enzyme concentration of 60 U/g stevioside for reaction at 35° C. for 2 h.
250 g/L glycoside liquid is prepared with deionized water from Stevia sugar (containing 22% of rebaudioside A, 68% of stevioside and 3% of rebaudioside C in percentages by mass). The lactase freeze-dried powder obtained in Example 1 is added to reach an enzyme concentration of 150 U/g stevioside for reaction at 35° C. for 24 h.
100 g/L glycoside liquid is prepared from the Stevia mother liquor glycosides (containing 47% of rebaudioside A, 19% of stevioside and 7% of rebaudioside C in percentages by mass). The lactase freeze-dried powder obtained in Example 1 is added to reach an enzyme concentration of 30 U/g stevioside for reaction at 25° C. for 0.5 h. […] It can be seen that a conversion rate of stevioside will drop at a low temperature, a low enzyme concentration and a short reaction time.
A 200 g/L stevioside solution is prepared by dissolving 20 g of stevioside (97%, HPLC) in 100 mL of deionized water into a reactor. The lactase freeze-dried powder obtained in Example 1 is added to reach an enzyme concentration of 90 U/g stevioside for reaction at 35° C. for 2 h.
The lactase freeze-dried powder obtained in Example 1 is added to a mixed glycoside solution (50% of stevioside and 50% of rebaudioside A) with a solid content of 200 g/L to reach an enzyme concentration of 200 U/g stevioside, stirred at 35° C. for 2 h.
A 10 g/L rebaudioside A solution is prepared by dissolving 1 g of rebaudioside A (99%, HPLC) in 100 mL of deionized water and preheated for 30 min at 30° C. The lactase freeze-dried powder obtained in Example 1 is added to reach an enzyme concentration of 100 U/g rebaudioside A for reaction for 24 h at 30° C.

[3] = molecular target: T1, lactase (Lactozym Pure 7500 L) (Kluyveromyces lactis, UniProt P00723); test: Hydrolysis of stevioside in Stevia sugar by commercial lactase, HPLC; assay type: biochemical; details: Stevia sugar 450 g/L, pH5 buffer; 100 U/g stevioside; 30° C., 2 h
T1 construct: purchased Novozymes Lactozym Pure 7500 L
Protocol: 450 g/L glycoside liquid is prepared with a pH5 phosphate-potassium phosphate buffer solution (50 mmol/L) from Stevia sugar (containing 22% of rebaudioside A, 68% of stevioside and 3% of rebaudioside C in percentages by mass). The lactase (Lactozym Pure 7500 L, purchased from Novozymes company in China) is added to reach an enzyme concentration of 100 U/g stevioside for reaction at 30° C. for 2 h.

[4] = molecular target: T2, lactase (Lactozym 3000 L HP-G) from Kluyveromyces lactis (Kluyveromyces lactis, UniProt P00723); test: as above; assay type: biochemical; details: Stevia sugar 450 g/L, pH5 buffer; 100 U/g stevioside; 30° C., 2 h
T2 construct: purchased Novozymes Lactozym 3000 L HP-G
Protocol: 450 g/L glycoside liquid is prepared with a pH5 phosphate-potassium phosphate buffer solution (50 mmol/L) from Stevia sugar (containing 22% of rebaudioside A, 68% of stevioside and 3% of rebaudioside C in percentages by mass). The lactase (trade name: Lactozym 3000 L HP-G, purchased from Novozymes company in China) from Kluyveromyces lactis is added to reach an enzyme concentration of 100 U/g stevioside for reaction at 30° C. for 2 h.

[5] = molecular target: T3, lactase (Maxilact LG 2000) from Kluyveromyces lactis (Kluyveromyces lactis, UniProt P00723); test: as above; assay type: biochemical; details: Stevia sugar 450 g/L, pH5 buffer, 100 U/g stevioside, 30° C.
T3 construct: purchased Royal DSM Maxilact LG 2000
Protocol: 450 g/L glycoside liquid is prepared with a pH5 phosphate-potassium phosphate buffer solution (50 mmol/L) from Stevia sugar (containing 22% of rebaudioside A, 68% of stevioside and 3% of rebaudioside C in percentages by mass). […]

[6] = molecular target: lactase from Aspergillus niger (ATCC 9029) (Aspergillus niger, UniProt P29853); test: Hydrolysis of stevioside in Stevia sugar by lactase, HPLC; assay type: biochemical; details: Stevia sugar 450 g/L, pH5 buffer; 100 U/g stevioside; 30° C., 2 h
Protocol: 450 g/L glycoside liquid is prepared with a pH5 phosphate-potassium phosphate buffer solution (50 mmol/L) from Stevia sugar (containing 22% of rebaudioside A, 68% of stevioside and 3% of rebaudioside C in percentages by mass). The lactase from Aspergillus niger (ATCC® 9029™) is added to reach an enzyme concentration of 100 U/g stevioside for reaction at 30° C. for 2 h.

T3 sequence (P00723 whole entry): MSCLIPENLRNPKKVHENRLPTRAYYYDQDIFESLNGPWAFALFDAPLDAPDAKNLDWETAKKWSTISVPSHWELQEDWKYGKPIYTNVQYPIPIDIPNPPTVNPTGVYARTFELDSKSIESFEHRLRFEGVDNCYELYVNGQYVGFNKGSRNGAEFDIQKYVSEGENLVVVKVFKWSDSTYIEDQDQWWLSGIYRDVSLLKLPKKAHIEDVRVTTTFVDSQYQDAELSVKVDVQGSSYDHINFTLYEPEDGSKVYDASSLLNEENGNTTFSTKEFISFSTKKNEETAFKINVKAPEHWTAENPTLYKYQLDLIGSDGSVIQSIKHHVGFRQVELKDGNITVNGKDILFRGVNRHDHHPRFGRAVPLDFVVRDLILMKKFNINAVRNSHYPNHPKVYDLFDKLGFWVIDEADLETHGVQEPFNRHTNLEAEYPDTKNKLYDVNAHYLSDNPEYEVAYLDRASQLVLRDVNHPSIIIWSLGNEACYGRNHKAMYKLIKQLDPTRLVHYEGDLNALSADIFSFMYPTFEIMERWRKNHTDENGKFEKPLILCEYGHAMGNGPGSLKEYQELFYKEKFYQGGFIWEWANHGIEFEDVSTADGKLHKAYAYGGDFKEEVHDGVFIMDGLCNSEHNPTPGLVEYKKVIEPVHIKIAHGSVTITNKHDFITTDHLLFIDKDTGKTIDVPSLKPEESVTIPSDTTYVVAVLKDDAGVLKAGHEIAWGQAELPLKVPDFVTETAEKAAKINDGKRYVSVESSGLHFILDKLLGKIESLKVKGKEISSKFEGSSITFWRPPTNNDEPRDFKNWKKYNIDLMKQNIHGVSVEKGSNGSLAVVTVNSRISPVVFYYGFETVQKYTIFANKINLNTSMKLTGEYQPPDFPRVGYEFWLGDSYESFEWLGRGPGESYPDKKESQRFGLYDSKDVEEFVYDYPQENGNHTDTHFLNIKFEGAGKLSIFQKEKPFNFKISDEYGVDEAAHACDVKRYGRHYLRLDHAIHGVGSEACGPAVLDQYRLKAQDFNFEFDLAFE
Sequence of lactase from Aspergillus niger (ATCC 9029) (P29853 20-1006): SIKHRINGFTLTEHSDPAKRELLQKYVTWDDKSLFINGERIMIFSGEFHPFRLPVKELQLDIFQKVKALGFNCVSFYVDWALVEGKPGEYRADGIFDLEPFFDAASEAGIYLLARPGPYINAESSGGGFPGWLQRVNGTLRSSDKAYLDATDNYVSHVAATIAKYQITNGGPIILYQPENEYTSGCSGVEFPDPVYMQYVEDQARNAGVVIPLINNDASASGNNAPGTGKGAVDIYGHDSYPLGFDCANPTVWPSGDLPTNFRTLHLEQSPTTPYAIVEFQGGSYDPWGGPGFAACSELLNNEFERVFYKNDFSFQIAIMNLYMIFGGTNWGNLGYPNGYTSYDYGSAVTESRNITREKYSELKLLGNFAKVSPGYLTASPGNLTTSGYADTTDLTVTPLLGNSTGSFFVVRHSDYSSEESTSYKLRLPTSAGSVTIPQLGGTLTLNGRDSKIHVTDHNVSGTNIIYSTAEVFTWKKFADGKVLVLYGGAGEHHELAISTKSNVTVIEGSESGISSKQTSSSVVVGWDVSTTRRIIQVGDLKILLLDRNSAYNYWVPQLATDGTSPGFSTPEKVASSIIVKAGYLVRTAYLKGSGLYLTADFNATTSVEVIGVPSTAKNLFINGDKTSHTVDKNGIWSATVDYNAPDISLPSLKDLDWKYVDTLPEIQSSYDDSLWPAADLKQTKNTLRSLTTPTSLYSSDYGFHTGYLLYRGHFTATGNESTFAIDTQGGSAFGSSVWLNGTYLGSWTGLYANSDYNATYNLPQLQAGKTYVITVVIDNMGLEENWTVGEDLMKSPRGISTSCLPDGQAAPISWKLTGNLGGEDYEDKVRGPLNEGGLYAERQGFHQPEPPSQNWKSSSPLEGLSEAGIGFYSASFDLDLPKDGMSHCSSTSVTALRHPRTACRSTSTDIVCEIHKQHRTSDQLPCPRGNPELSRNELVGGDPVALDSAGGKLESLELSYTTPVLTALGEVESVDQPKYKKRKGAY
T2 sequence (P00723 whole entry): as the sequence (P00723 whole entry) above
T1 sequence (P00723 whole entry): as above

With C=C1C[C@@]23CC[C@H]4[C@@](C)(CCC[C@@]4(C)C(=O)O[C@@H]4O[C@H](CO)[C@@H](O)[C@H](O)[C@H]4O)[C@@H]2CC[C@]1(O[C@@H]1O[C@H](CO)[C@@H](O)[C@H](O[C@@H]2O[C@H](CO)[C@@H](O)[C@H](O)[C@H]2O)[C@H]1O[C@@H]1O[C@H](CO)[C@@H](O)[C@H](O)[C@H]1O)C3 [rebaudioside A] the “n-butyl alcohol/water partition coefficients” value [1] was 0.09, the “reaction of rebaudioside A with lactase” value ([2]; 10 g/L rebaudioside A, 100 U/g rebaudioside A, 30° C., 24 h) was “did not react” and the “reaction of rebaudioside A with lactase in mixture with stevioside” value ([2]; 50 wt % rebaudioside A + 50 wt % stevioside, 200 U/g stevioside, 2 h (FIG. 4A)) was “does not react”.

For C=C1C[C@@]23CC[C@H]4[C@@](C)(CCC[C@@]4(C)C(=O)O[C@@H]4O[C@H](CO)[C@@H](O)[C@H](O)[C@H]4O)[C@@H]2CC[C@]1(O[C@@H]1O[C@H](CO)[C@@H](O)[C@H](O)[C@H]1O)C3 [rubusoside], the “n-butyl alcohol/water partition coefficients” value [1] was 3.5.

In the case of C=C1C[C@@]23CC[C@H]4[C@@](C)(CCC[C@@]4(C)C(=O)O[C@@H]4O[C@H](CO)[C@@H](O)[C@H](O)[C@H]4O)[C@@H]2CC[C@]1(O[C@@H]1O[C@H](CO)[C@@H](O)[C@H](O)[C@H]1O[C@@H]1O[C@H](CO)[C@@H](O)[C@H](O)[C@H]1O)C3 [stevioside], the “n-butyl alcohol/water partition coefficients” value ([1]; n-butyl alcohol/water) is reported as 0.36, the “conversion rate of stevioside” value ([2]; 50% stevioside + 50% rebaudioside A, 200 g/L, 200 U/g stevioside, 35° C., 2 h) is reported as 99.5% and the “conversion rate of stevioside” value ([2]; 200 g/L stevioside (97%) solution, 90 U/g stevioside, 35° C., 2 h) is reported as 98.9%. For the same compound, the “conversion rate of stevioside” value ([2]; Stevia mother liquor glycosides 100 g/L (19% stevioside), 30 U/g stevioside, 25° C., 0.5 h) was 72.7%, the “conversion rate of stevioside” value ([2]; Stevia sugar 250 g/L (68% stevioside), 60 U/g stevioside, 35° C., 2 h) was 98.3% and the “conversion rate of stevioside” value ([2]; Stevia sugar 250 g/L (68% stevioside), 150 U/g stevioside, 35° C., 24 h) was 99.5%. The conversion of stevioside [3] was “not converted”, the conversion of stevioside [4] was “not converted” and the conversion of stevioside ([5]; 2 h) was “not converted”. The “product of the reaction of stevioside” value ([5]; 20 h) was “steviolbioside is produced” and the “content of stevioside in the reaction mixture” value [6] was “no change”.

For rebaudioside C, the “n-butyl alcohol/water partition coefficients” value [1] was 0.2.
